In patent publication US20170198006A1, “PRMT5 INHIBITORS AND USES THEREOF” (Epizyme, Inc., priority 2014, published 2017):

Target: T1, PRMT5/MEP50 (Homo sapiens, UniProt O14744)
T1 construct: Flag-PRMT5; made in house; host or cells: Spodoptera frugiperda (SF9), baculovirus
Assay: PRMT5 Biochemical Assay (PRMT5/MEP50 enzyme assay on histone H4 peptide substrate, 3H-SAM Flashplate)
Conditions: not given
Excerpt: S-adenosylmethionine (SAM), S-adenosylhomocysteine (SAH), bicine, KCl, Tween20, dimethylsulfoxide (DMSO), bovine skin gelatin (BSG), and Tris(2-carboxyethyl)phosphine hydrochloride solution (TCEP) were purchased from Sigma-Aldrich at the highest level of purity possible. ^3H-SAM was purchase from American Radiolabeled Chemicals with a specific activity of 80 Ci/mmol. 384-well streptavidin Flashplates were purchased from PerkinElmer.
Peptide representative of human histone H4 residues 1-15 was synthesized with a C-terminal linker-affinity tag motif and a C-terminal amide cap by 21st Century Biochemicals.
The amplified genes were sublconed into pENTR/D/TEV (Life Technologies) and subsequently transferred by Gateway™ attL×attR recombination to pDEST8 baculvirus expression vector (Life Technologies).
Protein over-expression was accomplished by infecting exponentially growing Spodoptera frugiperda (SF9) cell culture at 1.2×10^6 cell/ml with a 5000 fold dilution of BIIC stock. Infections were carried out at 27° C. for 72 hours, harvested by centrifugation, and stored at −80° C. for purification.
Flag-PRMT5/6His-MeP50 was eluted with 300 mM Imidazole in the same buffer.
General Procedure for PRMT5/MEP50 Enzyme Assays on Peptide Substrates.
The assays were all performed in a buffer consisting of 20 mM Bicine (pH=7.6), 1 mM TCEP, 0.005% BSG, and 0.002% Tween20, prepared on the day of use. […] DMSO (1 ul) was added to Columns 11, 12, 23, 24, rows A-H for the maximum signal control and 1 ul of SAH, a known product and inhibitor of PRMT5/MEP50, was added to columns 11, 12, 23, 24, rows I-P for the minimum signal control. A cocktail (40 ul) containing the PRMT5/MEP50 enzyme and the peptide was added by Multidrop Combi (Thermo-Fisher). The compounds were allowed to incubate with PRMT5/MEP50 for 30 min at 25 degrees Celsius, then a cocktail (10 ul) containing ^3H-SAM was added to initiate the reaction (final volume=51 ul). […] The assays were stopped by the addition of non-radioactive SAM (10 ul) to a final concentration of 600 uM, which dilutes the ^3H-SAM to a level where its incorporation into the peptide substrate is no longer detectable. 50 ul of the reaction in the 384-well polypropylene plate was then transferred to a 384-well Flashplate and the biotinylated peptides were allowed to bind to the streptavidin surface for at least 1 hour before being washed three times with 0.1% Tween20 in a Biotek ELx405 plate washer. The plates were then read in a PerkinElmer TopCount plate reader to measure the quantity of ^3H-labeled peptide bound to the Flashplate surface, measured as disintegrations per minute (dpm) or alternatively, referred to as counts per minute (cpm).
Where dpm=disintegrations per minute, cmpd=signal in assay well, and min and max are the respective minimum and maximum signal controls.
Where top and bottom are the normally allowed to float, but may be fixed at 100 or 0 respectively in a 3-parameter fit. The Hill Coefficient normally allowed to float but may also be fixed at 1 in a 3-parameter fit. Y is the % inhibition and X is the compound concentration.

T1 sequence (O14744 with tags, fused parts or gaps): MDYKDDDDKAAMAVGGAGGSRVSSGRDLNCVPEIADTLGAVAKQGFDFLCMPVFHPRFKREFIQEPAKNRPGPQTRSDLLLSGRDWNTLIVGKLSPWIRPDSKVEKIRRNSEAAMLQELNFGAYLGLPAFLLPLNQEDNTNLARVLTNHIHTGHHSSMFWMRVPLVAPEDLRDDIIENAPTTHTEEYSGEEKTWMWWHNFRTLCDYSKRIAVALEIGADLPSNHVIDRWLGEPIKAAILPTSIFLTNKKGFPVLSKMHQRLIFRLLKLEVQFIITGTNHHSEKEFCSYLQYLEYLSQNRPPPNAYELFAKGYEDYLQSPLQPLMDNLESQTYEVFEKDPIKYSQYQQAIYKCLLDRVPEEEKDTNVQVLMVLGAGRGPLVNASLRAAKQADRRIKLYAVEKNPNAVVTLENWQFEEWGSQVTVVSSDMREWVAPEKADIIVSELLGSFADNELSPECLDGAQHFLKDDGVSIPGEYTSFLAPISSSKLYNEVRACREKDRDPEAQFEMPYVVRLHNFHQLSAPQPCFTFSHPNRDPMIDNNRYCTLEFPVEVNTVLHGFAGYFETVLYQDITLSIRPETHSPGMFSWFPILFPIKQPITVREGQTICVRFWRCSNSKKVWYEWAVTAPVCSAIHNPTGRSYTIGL
T1 sequence (Q9BQA1 with tags, fused parts or gaps partner limits assumed): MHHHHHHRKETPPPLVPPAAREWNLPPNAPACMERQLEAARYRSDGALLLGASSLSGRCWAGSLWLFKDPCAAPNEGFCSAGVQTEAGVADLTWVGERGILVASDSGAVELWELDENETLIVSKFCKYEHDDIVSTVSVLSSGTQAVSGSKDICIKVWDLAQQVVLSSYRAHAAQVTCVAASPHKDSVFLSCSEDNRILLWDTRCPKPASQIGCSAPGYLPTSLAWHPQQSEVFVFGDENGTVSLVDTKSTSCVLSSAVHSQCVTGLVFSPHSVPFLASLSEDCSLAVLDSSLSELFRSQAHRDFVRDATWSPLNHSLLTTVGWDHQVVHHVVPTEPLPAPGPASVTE

Row | IC50 [nM] | SMILES
1 | < 100 | NCCCSC[C@H]1O[C@@H](n2cnc3c(N)ncnc32)[C@H](O)[C@@H]1O [Compound 89-1]

Same assay, conditions: PRMT5 biochemical assay; read-out: Biochemical IC50

Row | SMILES | IC50 [nM]
2 | CN(CCCN)C[C@H]1O[C@@H](n2cnc3c(N)ncnc32)[C@H](O)[C@@H]1O [Compound 97-1] | < 100
3 | COc1cccc(NC(=O)CC2NC(N3CCN(c4ccccc4)CC3)=NC2=O)c1 (centres unmarked) [Compound 61-14] | 10000 to 50000
4 | Nc1ncnc2c1ncn2[C@@H]1O[C@H](CSCCCC(=O)O)[C@@H](O)[C@H]1O [Compound 95-1] | 101 to 1000
5 | CC(CO)NCCN(C)C[C@H]1O[C@@H](n2cnc3c(N)ncnc32)[C@H](O)[C@@H]1O (some centres unmarked) [Compound 58-1] | < 100
6 | CC(C)N(CCNCCc1ccc(Cl)cc1)C[C@H]1O[C@@H](n2cnc3c(N)ncnc32)[C@H](O)[C@@H]1O [Compound 77-1] | 101 to 1000
7 | Cc1ccc(C(=O)CC2NC(N3CCN(Cc4ccncc4)CC3)=NC2=O)cc1 (centres unmarked) [Compound 44-14] | 1000 to 10000
8 | Cc1cccc(NC(=O)CC2NC(N3CCN(c4ccccc4)CC3)=NC2=O)c1 (centres unmarked) [Compound 8-14] | 1000 to 10000
9 | Cc1ccc(C(=O)CC2NC(N3CCN(Cc4ccccc4)CC3)=NC2=O)cc1 (centres unmarked) [Compound 28-14] | 1000 to 10000
10 | CN(CCc1c[nH]cn1)CCN(C)C[C@H]1O[C@@H](n2cnc3c(N)ncnc32)[C@H](O)[C@@H]1O [Compound 47-1] | 101 to 1000
11 | CN(CCNCc1ccco1)C[C@H]1O[C@@H](n2cnc3c(N)ncnc32)[C@H](O)[C@@H]1O [Compound 14-1] | 101 to 1000
12 | Nc1ncnc2c1ncn2[C@@H]1O[C@H](CSC[C@H](N)C(=O)O)[C@@H](O)[C@H]1O [Compound 88-1] | 101 to 1000
13 | CN(CCN(C)C[C@H]1O[C@@H](n2cnc3c(N)ncnc32)[C@H](O)[C@@H]1O)Cc1ccccc1 [Compound 9-1] | 101 to 1000
14 | COc1ccc(C(=O)CC2NC(N3CCN(c4ccccc4)CC3)=NC2=O)cc1 (centres unmarked) [Compound 38-14] | 1000 to 10000
15 | CC(NCCN(C)C[C@H]1O[C@@H](n2cnc3c(N)ncnc32)[C@H](O)[C@@H]1O)c1ccc(Br)cc1 (some centres unmarked) [Compound 18-1] | < 100
16 | CCCCOC(=O)c1ccc(NC(=O)NCCNC[C@H]2O[C@@H](n3cnc4c(N)ncnc43)[C@H](O)[C@@H]2O)cc1 [Compound 75-1] | < 100
17 | CN(CCN1CCN(CCc2ccccc2)CC1)C[C@H]1O[C@@H](n2cnc3c(N)ncnc32)[C@H](O)[C@@H]1O [Compound 45-1] | 101 to 1000
18 | CN(CCNC1CCCC1)C[C@H]1O[C@@H](n2cnc3c(N)ncnc32)[C@H](O)[C@@H]1O [Compound 65-1] | 101 to 1000

Row | SMILES | IC50 [nM]
19 | O=C(CC1NC(N2CCN(c3ccccc3)CC2)=NC1=O)c1ccc(Cl)cc1 (centres unmarked) [Compound 42-14] | 101 to 1000
20 | CN(CCNCc1ccccc1)C[C@H]1O[C@@H](n2cnc3c(N)ncnc32)[C@H](O)[C@@H]1O [Compound 12-1] | 101 to 1000
21 | CCN(CCNCCc1ccc(Cl)cc1)C[C@H]1O[C@@H](n2cnc3c(N)ncnc32)[C@H](O)[C@@H]1O [Compound 82-1] | 101 to 1000
22 | CN(CCN(C)C[C@H]1O[C@@H](n2cnc3c(N)ncnc32)[C@H](O)[C@@H]1O)Cc1ccccc1Cl [Compound 6-1] | 101 to 1000
23 | COc1ccccc1C(=O)CC1NC(N2CCN(c3ccccc3)CC2)=NC1=O (centres unmarked) [Compound 3-6] | 101 to 1000
24 | Cc1ccc(C(=O)CC2NC(N3CCN(c4ccncc4)CC3)=NC2=O)cc1 (centres unmarked) [Compound 34-14] | 10000 to 50000
25 | CN(CCNCCc1c[nH]c2ccccc12)C[C@H]1O[C@@H](n2cnc3c(N)ncnc32)[C@H](O)[C@@H]1O [Compound 55-1] | < 100
26 | CC(NCCN(C)C[C@H]1O[C@@H](n2cnc3c(N)ncnc32)[C@H](O)[C@@H]1O)c1ccccc1 (some centres unmarked) [Compound 5-1] | 101 to 1000
27 | CCN1CCN(C2=NC(=O)C(CC(=O)Nc3ccc(C)cc3)N2)CC1 (centres unmarked) [Compound 5-14] | 1000 to 10000
28 | Cc1ccc(C(=O)CC2NC(N(C)CCN(C)c3ccccc3)=NC2=O)cc1 (centres unmarked) [Compound 45-14] | 10000 to 50000
29 | COc1cc(Cl)ccc1NC(=O)CC1NC(N2CCN(c3ccccc3)CC2)=NC1=O (centres unmarked) [Compound 63-14] | 101 to 1000
30 | O=C(CC1NC(N2CCN(c3ccccc3)CC2)=NC1=O)Nc1ccc(Cl)c(Cl)c1 (centres unmarked) [Compound 59-14] | 101 to 1000
31 | Cc1ccc(C(=O)CC2NC(N3CCN(c4ccc(F)cc4)CC3)=NC2=O)cc1 (centres unmarked) [Compound 32-14] | 1000 to 10000
32 | COc1ccccc1C(=O)CC1NC(N2CC=C(c3ccccc3)CC2)=NC1=O (centres unmarked) [Compound 6-6] | 101 to 1000
33 | CN(CCNCc1ccc(Cl)cc1)C[C@H]1O[C@@H](n2cnc3c(N)ncnc32)[C@H](O)[C@@H]1O [Compound 8-1] | 101 to 1000
34 | O=C(CC1NC(N2CCN(c3ccccc3)CC2)=NC1=O)Nc1cccc(Cl)c1 (centres unmarked) [Compound 50-14] | 1000 to 10000
35 | CN(CCNc1ccccc1)CC1O[C@@H](n2cnc3c(N)ncnc32)[C@H](O)[C@@H]1O (some centres unmarked) [Compound 57-1] | < 100

More lines, now with the values ahead:

Row | IC50 [nM] | SMILES
36 | < 100 | Nc1ncnc2c1ncn2[C@@H]1O[C@H](CN(CCCC(=O)OCc2ccccc2)CCNCCc2ccc(Cl)cc2)[C@@H](O)[C@H]1O [Compound 78-1]
37 | 101 to 1000 | COCC(C)NCCN(C)C[C@H]1O[C@@H](n2cnc3c(N)ncnc32)[C@H](O)[C@@H]1O (some centres unmarked) [Compound 67-1]
38 | < 100 | CN(CCNCc1ccc(F)cc1)C[C@H]1O[C@@H](n2cnc3c(N)ncnc32)[C@H](O)[C@@H]1O [Compound 16-1]
39 | 1000 to 10000 | Cc1ccc(C(=O)CC2NC(N3CCN(c4cccnc4)CC3)=NC2=O)cc1 (centres unmarked) [Compound 43-14]
40 | 101 to 1000 | N=C(NC[C@H]1O[C@@H](n2cnc3c(N)ncnc32)[C@H](O)[C@@H]1O)c1ccccc1 [Compound 83-1]
41 | < 100 | Nc1ncnc2c1ncn2[C@@H]1O[C@H](CSCCC(N)CO)[C@@H](O)[C@H]1O (some centres unmarked) [Compound 90-1]
42 | 1000 to 10000 | Cc1ccc(C(=O)CC2NC(N3CCN(c4ccccn4)CC3)=NC2=O)cc1 (centres unmarked) [Compound 33-14]
43 | 1000 to 10000 | CC(C)c1ccc(NC(=O)CC2NC(N3CCN(c4ccccn4)CC3)=NC2=O)cc1 (centres unmarked) [Compound 16-14]
44 | 101 to 1000 | CN1CC[C@@H](N(C)C[C@H]2O[C@@H](n3cnc4c(N)ncnc43)[C@H](O)[C@@H]2O)C1 [Compound 86-1]
45 | < 100 | Nc1ncnc2c1ncn2[C@@H]1O[C@H](CN(CCNCCc2ccc(Cl)cc2)Cc2ccccc2)[C@@H](O)[C@H]1O [Compound 81-1]
46 | 1000 to 10000 | Cc1ccc(C(=O)CC2NC(N3Cc4ccccc4C3)=NC2=O)cc1 (centres unmarked) [Compound 36-14]
47 | 101 to 1000 | CN1CCC(N(C)CCN(C)C[C@H]2O[C@@H](n3cnc4c(N)ncnc43)[C@H](O)[C@@H]2O)C1 (some centres unmarked) [Compound 39-1]
48 | 101 to 1000 | CN(CCNCc1ccc(Cl)c(Cl)c1)C[C@H]1O[C@@H](n2cnc3c(N)ncnc32)[C@H](O)[C@@H]1O [Compound 13-1]
49 | 101 to 1000 | CCCN(CCN(C)C[C@H]1O[C@@H](n2cnc3c(N)ncnc32)[C@H](O)[C@@H]1O)CC1CC1 [Compound 42-1]
50 | 1000 to 10000 | N#Cc1cccc(C(=O)CC2NC(N3CCN(c4ccccc4)CC3)=NC2=O)c1 (centres unmarked) [Compound 46-14]
51 | 101 to 1000 | CN(CCN(C)C[C@H]1O[C@@H](n2cnc3c(N)ncnc32)[C@H](O)[C@@H]1O)Cc1ccc(Cl)cc1 [Compound 10-1]
52 | 101 to 1000 | COc1cccc([C@H](C)NCCN(C)C[C@H]2O[C@@H](n3cnc4c(N)ncnc43)[C@H](O)[C@@H]2O)c1 [Compound 2-1]
53 | 101 to 1000 | CN1CCC(N(C)C[C@H]2O[C@@H](n3cnc4c(N)ncnc43)[C@H](O)[C@@H]2O)C1 (some centres unmarked) [Compound 85-1]
54 | 101 to 1000 | CN(CCNC1CCC(C(C)(C)C)CC1)C[C@H]1O[C@@H](n2cnc3c(N)ncnc32)[C@H](O)[C@@H]1O (some centres unmarked) [Compound 71-1]
55 | 1000 to 10000 | CN1CCN(C2=NC(=O)C(CC(=O)Nc3ccc(Cl)cc3)N2)CC1 (centres unmarked) [Compound 2-14]
56 | 101 to 1000 | COc1ccccc1C(=O)CC1NC(N2CCC(c3ccccc3)CC2)=NC1=O (centres unmarked) [Compound 48-14]
